Where a chain is given by its changes, count along the chain named. Read-outs that look alike come from different tables or passages of the source.
Experiments:
[1] = biological target: T1, hAR (human androgen receptor) (Homo sapiens, UniProt P10275); assay: Competitive hAR binding assay with 3H-DHT tracer
T1 construct: made in house; host or cells: baculovirus/Sf9 insect cells (crude extract)
T1 sequence (P10275 1-920): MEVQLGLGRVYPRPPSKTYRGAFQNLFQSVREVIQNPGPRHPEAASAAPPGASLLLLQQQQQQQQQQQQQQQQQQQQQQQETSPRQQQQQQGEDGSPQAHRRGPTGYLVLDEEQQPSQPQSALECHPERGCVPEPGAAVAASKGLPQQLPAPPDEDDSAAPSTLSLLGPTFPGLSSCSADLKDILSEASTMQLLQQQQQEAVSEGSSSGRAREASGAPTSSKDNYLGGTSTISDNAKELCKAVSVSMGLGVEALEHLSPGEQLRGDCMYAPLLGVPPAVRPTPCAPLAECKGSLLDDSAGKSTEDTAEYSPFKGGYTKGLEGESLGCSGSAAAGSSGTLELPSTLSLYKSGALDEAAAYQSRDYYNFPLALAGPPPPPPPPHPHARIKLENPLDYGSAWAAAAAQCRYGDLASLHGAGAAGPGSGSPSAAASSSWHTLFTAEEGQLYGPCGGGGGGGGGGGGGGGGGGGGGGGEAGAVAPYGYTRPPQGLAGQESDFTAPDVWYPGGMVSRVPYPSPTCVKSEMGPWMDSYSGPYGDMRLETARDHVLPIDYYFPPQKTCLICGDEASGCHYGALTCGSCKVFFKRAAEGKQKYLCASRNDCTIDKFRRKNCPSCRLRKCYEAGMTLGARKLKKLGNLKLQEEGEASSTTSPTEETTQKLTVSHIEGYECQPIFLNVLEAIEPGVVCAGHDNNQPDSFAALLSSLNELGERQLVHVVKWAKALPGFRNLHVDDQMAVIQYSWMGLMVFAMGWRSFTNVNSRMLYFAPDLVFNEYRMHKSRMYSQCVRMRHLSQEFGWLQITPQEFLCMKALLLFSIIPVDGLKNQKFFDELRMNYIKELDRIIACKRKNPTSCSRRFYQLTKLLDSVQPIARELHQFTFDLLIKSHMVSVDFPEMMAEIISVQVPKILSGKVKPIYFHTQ
Procedure: The description below describes how the assay was carried out.
Competitive binding analysis was performed on baculovirus/Sf9 generated hAR extracts in the presence or absence of different concentrations of test agent and a fixed concentration of ^3H-dihydrotestosterone (3H-DHT) as tracer. […] Subsequently, the binding reactions are washed three times to completely remove excess unbound ^3H-DHT. hAR bound ^3H-DHT levels are determined in the presence of compounds (i.e. competitive binding) and compared to levels bound when no competitor is present (i.e. maximum binding). Compound binding affinity to the hAR is expressed as the concentration of compound at which one half of the maximum binding is inhibited.

[2] = biological target: T2, androgen receptor in MDA-MB453-MMTV clone 54-19 cells (Homo sapiens, UniProt P10275); assay: AR antagonist cell assay (MMTV-luciferase reporter); type: cell-based
T2 sequence (P10275 1-920 Q868H): T1 sequence (P10275 1-920) with Q868H
Procedure: The compounds ability to antagonize the effects of androgen on the androgen receptor were determined in a whole cell assay as described immediately below.
This cell line is a stable transfected cell line with MDA-MB453 cell background (a human breast tumor cell line expressing androgen receptor). A MMTV minimal promoter containing ARE was first cloned in front of a firefly luciferase reporter gene. Then the cascade was cloned into transfection vector pUV120puro. […] Puromycin resistant stable cell line was selected.
Plating medium: DMEM (phenol red free), 10% charcoal treated HyClone serum, 1% L-glutamine
Assay medium: DMEM (phenol red free), 1% charcoal treated HyClone serum, 1% L-glutamine, and 1% penicillin/streptomycin
Assay procedure: • 1. Cells are maintained in culture medium, splitting cells when they reach 80-90% confluence • 2. To test compounds, 10,000 cells/well are plated to opaque 96 cell culture plate in 100 ul/well plating medium, culture for overnight at 37° C. in cell culture incubator • 3. […] Add 10 ul/well freshly prepared DHT (final concentration at […]) to each well, incubate at 37° C. for 17 hr (overnight) • 5.
The results are reported as the mean of multiple tests as described below (the numbers of tests are indicated in the footnote). N.D. denotes that the compound was not tested.

[3] = baculovirus/Sf9 hAR extract, 1 nM 3H-DHT, one hour at 4° C, mean of multiple tests, read-out: AR Binding IC50
[4] = MDA-MB453-MMTV clone 54-19, inhibition of DHT induced luciferase, 17 hr; mean of multiple tests; read-out: AR Cell IC50
[5] = read-out: AR Cell IC50; MDA-MB453-MMTV clone 54-19, inhibition of DHT induced luciferase, 17 hr; mean of multiple tests

SMILES	IC50 [1, 3] [nM]	IC50 [2, 4] [nM]	IC50 [1] [nM]	IC50 [2, 5] [nM]
CCc1cccc(Oc2ccc(C#N)c(Cl)c2)c1 [Example 34, 2-Chloro-4-(3-ethyl-phenoxy)-benzonitrile]	181	924	–	–
CCCc1ccccc1Oc1ccc(C#N)cc1Cl [Example 17, 3-Chloro-4-(2-propyl-phenoxy)-benzonitrile]	102	861	–	–
N#Cc1ccc(Oc2cccc3ccccc23)cc1Cl [Example 40, 2-Chloro-4-(naphthalen-1-yloxy)-benzonitrile]	–	–	31	90
N#CCOc1ccccc1Oc1ccc(C#N)c(C(F)(F)F)c1 [Example 123, 4-(2-cyanomethoxy-phenoxy)-2-trifluoromethyl-benzonitrile]	141	–	–	54
Cc1ccc(Oc2ccc(C#N)c(C(F)(F)F)c2)c(C)c1 [Example 99, 4-(2,4-Dimethyl-phenoxy)-2-trifluoromethyl-benzonitrile]	–	899	46	–
CC(C)Oc1ccccc1Oc1ccc(C#N)c(Cl)c1 [Example 63, 2-Chloro-4-(2-isopropoxy-phenoxy)-benzonitrile]	–	–	70	4
CCOc1cc(C)ccc1Oc1ccc(C#N)c(Cl)c1 [Example 57, 2-Chloro-4-(2-ethoxy-4-methyl-phenoxy)-benzonitrile]	–	> 1000	7	–
N#Cc1ccc(Oc2ccc(F)cc2F)c(Cl)c1 [Example 25, 3-Chloro-4-(2,4-difluoro-phenoxy)-benzonitrile]	371	792	–	–
Cc1cccc(Oc2ccc(C#N)c(Cl)c2)c1 [Example 41, 2-Chloro-4-m-tolyloxy-benzonitrile]	–	120	86	–
Cc1ccc(F)c(Oc2ccc(C#N)c(C(F)(F)F)c2)c1F [Example 118, 4-(2,6-Difluoro-3-methyl-phenoxy)-2-trifluoromethyl-benzonitrile]	–	249	76	–
N#Cc1ccc(Oc2ccc(O)cc2)cc1C(F)(F)F [Example 80, 4-(4-Hydroxy-phenoxy)-2-trifluoromethyl-benzonitrile]	207	–	–	62
COc1cc(C#N)ccc1Oc1ccccc1C [Example 125, 3-Methoxy-4-o-tolyloxy-benzonitrile]	433	50	–	–
CCCC(=O)Nc1ccc(Oc2ccc(C#N)c(Cl)c2)cc1 [Example 61, N-[4-(3-Chloro-4-cyano-phenoxy)-phenyl]-butyramide]	163	535	–	–
N#Cc1ccc(Oc2ccc(F)cc2F)cc1C(F)(F)F [Example 115, 4-(2,4-Difluoro-phenoxy)-2-trifluoromethyl-benzonitrile]	–	–	128	56
N#Cc1ccc(Oc2ccccc2)cc1Cl [Example 66, 2-Chloro-4-phenoxy-benzonitrile]	147	333	–	–
CCN(CC)C(=O)c1ccccc1Oc1ccc(C#N)c(C(F)(F)F)c1 [Example 106, 2-(4-Cyano-3-trifluoromethyl-phenoxy)-N,N-diethyl-benzamide]	175	> 1000	–	–
CCC(C)c1ccccc1Oc1ccc(C#N)c(Cl)c1 (stereo not drawn) [Example 48, 4-(2-sec-Butyl-phenoxy)-2-chloro-benzonitrile]	184	> 1000	–	–
N#Cc1ccc(Oc2ccccc2C(F)(F)F)c(Cl)c1 [Example 20, 3-Chloro-4-(2-trifluoromethyl-phenoxy)-benzonitrile]	253	–	–	51
Cc1ccc(C(C)C)c(Oc2ccc(C#N)c(Cl)c2)c1 [Example 49, 2-Chloro-4-(2-isopropyl-5-methyl-phenoxy)-benzonitrile]	–	784	79	–
N#Cc1ccc(Oc2ccc(F)cc2F)cc1Cl [Example 36, 2-Chloro-4-(2,4-difluoro-phenoxy)-benzonitrile]	–	144	52	–
Cc1cccc(C)c1Oc1ccc(C#N)cc1Cl [Example 16, 3-Chloro-4-(2,,6-dimethyl-phenoxy)-benzonitrile]	–	161	16	–
C=CCc1cccc(C)c1Oc1ccc(C#N)c(Cl)c1 [Example 44, 4-(2-Allyl-6-methyl-phenoxy)-2-chloro-benzonitrile]	–	282	79	–
COc1ccccc1Oc1ccc(C#N)c(Cl)c1 [Example 42, 2-Chloro-4-(2-methoxy-phenoxy)-benzonitrile]	–	387	2	–
COc1cccc(F)c1Oc1ccc(C#N)cc1Cl [Example 19, 3-Chloro-4-(2-fluoro-6-methoxy-phenoxy)-benzonitrile]	–	–	28	52
CC(=O)c1cc(F)ccc1Oc1ccc(C#N)c(C(F)(F)F)c1 [Example 120, 4-(2-Acetyl-4-fluoro-phenoxy)-2-trifluoromethyl-benzonitrile]	222	367	–	–
N#Cc1ccc(Oc2ccc(F)cc2)cc1Cl [Example 52, 2-Chloro-4-(4-fluoro-phenoxy)-benzonitrile]	152	261	–	–
CCc1ccccc1Oc1ccc(C#N)cc1Cl [Example 23, 3-Chloro-(2-ethyl-phenoxy)-benzonitrile]	227	> 1000	–	–
CC(=O)c1ccccc1Oc1ccc(C#N)c(C(F)(F)F)c1 [Example 88, 4-(2-Acetyl-phenoxy)-2-trifluoromethyl-benzonitrile]	276	123	–	–
N#Cc1ccc(Oc2cccc(O)c2)cc1C(F)(F)F [Example 82, 4-(3-Hydroxy-phenoxy)-2-trifluoromethyl-benzonitrile]	–	–	85	61
Cc1ccc(C(C)C)cc1Oc1ccc(C#N)c(Cl)c1 [Example 53, 2-Chloro-4-(5-isopropyl-2-methyl-phenoxy)-benzonitrile]	192	621	–	–

Reference: patent publication US20090105349A1, “ANDROGEN MODULATORS” (WARNER-LAMBERT COMPANY LLC, priority 2004, published 2009)
